According to ChEMBL document CHEMBL5584285, “Advancements in Protein Degradation for Cancer Therapy” (ACS Med Chem Lett, 2024):

Assays:
[1] = Binding affinity to 6His-tagged KRAS G12V mutant /GST-tagged RAF1 (unknown origin) incubated for 60 mins by fluorescence based microplate reader assay; set-up: species or system Homo sapiens
GTPase KRas = GTPase KRas (Homo sapiens, UniProt P01116, G12V); assay: Induction of KRAS G12V mutant degradation in human SW1990 cells incubated for 24 hrs; type: cell-based
Sequence of GTPase KRas (P01116 whole entry G12V): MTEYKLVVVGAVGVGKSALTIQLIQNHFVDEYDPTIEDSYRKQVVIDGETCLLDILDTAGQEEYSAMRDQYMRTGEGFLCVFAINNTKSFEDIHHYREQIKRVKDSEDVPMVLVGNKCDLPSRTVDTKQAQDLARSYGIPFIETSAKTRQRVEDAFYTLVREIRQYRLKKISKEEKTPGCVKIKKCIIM

| Structure (SMILES) | IC50 [1] | DC50 (GTPase KRas) |
| --- | --- | --- |
| CCc1c(F)ccc2cc(O)cc(-c3ncc4c(N5CCC[C@@](C)(O)C5)nc(OCC5(CN6CC(N7CCC(N8CCN(c9ccc%10c(c9)CN([C@H]9CCC(=O)NC9=O)C%10=O)CC8)CC7)C6)CC5)nc4c3F)c12 | ≤ 0.02 µM | ≤ 0.001 µM |
| CCc1c(F)ccc2cc(O)cc(-c3ncc4c(N5CCC[C@@](C)(O)C5)nc(OCC5(CN6CCC(C)(CN7CC8(CCN(c9ccc%10c(c9)CN([C@H]9CCC(=O)NC9=O)C%10=O)CC8)C7)CC6)CC5)nc4c3F)c12 | ≤ 0.02 µM | ≤ 0.001 µM |
| CCc1cccc2cc(O)cc(-c3ncc4c(N5CCC[C@@](C)(O)C5)nc(OCC5(CN6CCC(OC7CCN(c8ccc9c(c8)CN(C8CCC(=O)NC8=O)C9=O)CC7)CC6)CC5)nc4c3F)c12 (some centres not stated) | 0.02 µM | ≤ 0.001 µM |
| CCc1c(F)ccc2cc(O)cc(-c3ncc4c(N5CCC[C@@](C)(O)C5)nc(OCC5(CN6CCC(OC7CCN(C8CCN(c9ccc%10c(c9)CN(C9CCC(=O)NC9=O)C%10=O)CC8)CC7)CC6)CC5)nc4c3F)c12 (some centres not stated) | ≤ 0.02 µM | ≤ 0.001 µM |
| CCc1c(F)ccc2cc(O)cc(-c3ncc4c(N5CCC[C@]6(CCO6)C5)nc(OCC5(CN6CCC(CN7CCN(c8ccc9c(c8)CN([C@H]8CCC(=O)NC8=O)C9=O)CC7)CC6)CC5)nc4c3F)c12 | 0.02 µM | 0.001 µM |
| CCc1c(F)ccc2cc(O)cc(-c3ncc4c(N5CCC[C@@](C)(O)C5)nc(OCC5(CN6CCC7(CC6)CC(N6CCN(c8ccc9c(c8)CN([C@H]8CCC(=O)NC8=O)C9=O)CC6)C7)CC5)nc4c3F)c12 | ≤ 0.02 µM | ≤ 0.001 µM |
